Test results from patent publication US20260125335A1, “SYNTHETIC C[…], PHARMACEUTICAL COMPOSITIONS, AND METHODS OF TREATING BACTERIAL INFECTIONS AND OTHER DISORDERS” (priority 2023, published 2026).
≈ marks a conversion by molar mass, not a printed value. Like-named read-outs stand apart in the source and are kept apart here.

Experiments:
Assay type in all cases: cell-based
[1] = test system: Staphylococcus aureus; assay: Broth microdilution MIC assay, Staphylococcus aureus
Method: (§1) This example illustrates evaluating in vitro activity of (Z)-2-(3,6-dimethylhepta-2,5-dien-1-yl)-5-pentylbenzene-1,3-diol (Example 1, “M194”) against gram-positive and gram-negative bacteria. In this study, in vitro activity was determined against a diverse panel of Gram-positive and Gram-negative bacteria associated with a variety of infections. Broth microdilution MIC assays were conducted following guidelines recommended by the Clinical and Laboratory Standards Institute (CLSI; 1-3).
(§2) The compound M194 was provided in powder form and initially stored at room temperature prior to testing. A stock solution of M194 in DMSO/DMSO solvent/diluent was made at 101× the final testing concentration and tested over ranges of 0.06-64 μg/mL.
(§3) Test organisms consisted of isolates from the American Type Culture Collection (ATCC; Manassas, VA) and the Micromyx Repository (MMX; Kalamazoo, MI). Upon initial receipt at Microbiologics, the organisms were sub-cultured onto an appropriate agar medium and incubated under atmospheric conditions required for growth. Following incubation for 18 to 24 hr at 35° C. in the appropriate atmosphere, colonies were harvested from these plates and cell suspensions were prepared and frozen at −80° C. with a cryoprotectant. Prior to testing, isolates were streaked from frozen vials onto the appropriate agar. Unless otherwise noted, Trypticase Soy Agar with 5% sheep blood (Remel; Lenexa, KS; Lot No. 693244) was used and inoculated plates were incubated at 35° C. overnight in ambient atmosphere. Haemophilus influenzae isolates were streaked onto Chocolate agar (Becton Dickinson [BD]; Sparks, MD; Lot No. 3157581). Streptococcus spp., Moraxella spp., and H. influenzae inoculated plates were incubated at 35° C. overnight in 5% CO2.
(§4) Organisms were tested in the appropriate media according to CLSI guidelines (1-3). Cation-Adjusted Mueller Hinton broth (CAMHB) was made by supplementing Mueller Hinton Broth (MHB; BD; Lot No. 1285575) to a final concentration of 20 mg/L Ca++ (Sigma; St. Louis, MO; Lot. No. 084K0215) and 12.5 mg/L Mg++ (VWR; Radnor, PA; Lot. No. 22C0856290). CAMHB was used for broth microdilution testing except for isolates requiring specialized media as described below.
(§5) The MIC assay method followed the procedures described by CLSI and employed automated liquid handlers to conduct serial dilutions and liquid transfers. Automated liquid handlers included the Multidrop Combi (ThermoScientific), Biomek 3000, and Biomek FX (Beckman Coulter; Fullerton, CA).
(§6) The wells in columns 2 through 12 in standard 96-well microdilution plates (Costar 3795) were filled with 150 μl of the appropriate diluent. These would become the “mother plates” from which “daughter,” or test plates, would be prepared. […]

[2] = test system: Citrobacter freundii; assay: Broth microdilution MIC assay, Citrobacter freundii; details: type —
Method: as §1, §2
(§7) Test organisms consisted of isolates from the American Type Culture Collection (ATCC; Manassas, VA) and the Micromyx Repository (MMX; Kalamazoo, MI). Upon initial receipt at Microbiologics, the organisms were sub-cultured onto an appropriate agar medium and incubated under atmospheric conditions required for growth. Following incubation for 18 to 24 hr at 35° C. in the appropriate atmosphere, colonies were harvested from these plates and cell suspensions were prepared and frozen at −80° C. with a cryoprotectant. Prior to testing, isolates were streaked from frozen vials onto the appropriate agar. […]

[3] = test system: Staphylococcus spp. and Enterococcus spp.; assay: Broth microdilution MIC assay, Staphylococcus spp. and Enterococcus spp.; details: all Staphylococcus spp.
Method: as §1, §2, §7

[4] = test system: Acinetobacter baumannii; assay: Broth microdilution MIC assay, Acinetobacter baumannii
Method: as §1, §2, §3
(§8) Organisms were tested in the appropriate media according to CLSI guidelines (1-3). […]

[5] = test system: Serratia marcescens; assay: Broth microdilution MIC assay, Serratia marcescens; details: type —
Method: as §1, §2, §7

[6] = test system: Streptococcus spp. and L. monocytogenes; assay: Broth microdilution MIC assay, Streptococcus spp. and L. monocytogenes; details: all Streptococcus spp., compared with Staphylococcus spp. and Enterococcus spp.
Method: as §1, §2, §7

[7] = test system: Escherichia coli; assay: Broth microdilution MIC assay, Escherichia coli
Method: as §1, §2, §3, §8

[8] = test system: Klebsiella pneumoniae; assay: Broth microdilution MIC assay, Klebsiella pneumoniae
Method: as §1, §2, §7

[9] = test system: Streptococcus pyogenes; assay: Broth microdilution MIC assay, Streptococcus pyogenes
Method: as §1, §2, §7

[10] = test system: Streptococcus agalactiae; assay: Broth microdilution MIC assay, Streptococcus agalactiae
Method: as §1, §2, §7

[11] = test system: Enterobacterales; assay: Broth microdilution MIC assay, Enterobacterales; details: any of the Enterobacterales
Method: as §1, §2, §7

[12] = test system: Streptococcus constellatus; assay: Broth microdilution MIC assay, Streptococcus constellatus; details: type —
Method: as §1, §2, §7

[13] = test system: Staphylococcus epidermidis; assay: Broth microdilution MIC assay, Staphylococcus epidermidis
Method: as §1, §2, §7

[14] = test system: Haemophilus influenzae; assay: Broth microdilution MIC assay, Haemophilus influenzae; details: for MIC: Haemophilus influenzae
Method: as §1, §2, §3, §8

[15] = test system: Listeria monocytogenes; assay: Broth microdilution MIC assay, Listeria monocytogenes; details: type —
Method: as §1, §2, §7

[16] = test system: Proteus mirabilis; assay: Broth microdilution MIC assay, Proteus mirabilis; details: type —
Method: as §1, §2, §7

[17] = test system: Enterococcus faecium; assay: Broth microdilution MIC assay, Enterococcus faecium
Method: as §1, §2, §7

[18] = test system: Pseudomonas aeruginosa; assay: Broth microdilution MIC assay, Pseudomonas aeruginosa; details: for MIC: Pseudomonas aeruginosa
Method: as §1, §2, §3, §8

[19] = test system: Neisseria gonorrhoeae; assay: Broth microdilution MIC assay, Neisseria gonorrhoeae
Method: as §1, §2, §7

[20] = test system: Streptococcus mutans; assay: Broth microdilution MIC assay, Streptococcus mutans; details: type —
Method: as §1, §2, §7

[21] = test system: Enterococcus faecalis; assay: Broth microdilution MIC assay, Enterococcus faecalis
Method: as §1, §2, §3, §4, §5, §6

[22] = test system: Moraxella catarrhalis; assay: Broth microdilution MIC assay, Moraxella catarrhalis
Method: as §1, §2, §7

[23] = test system: Staphylococcus saprophyticus; assay: Broth microdilution MIC assay, Staphylococcus saprophyticus; details: type MSS
Method: as §1, §2, §7

[24] = test system: Streptococcus oralis; assay: Broth microdilution MIC assay, Streptococcus oralis; details: type ERYR
Method: as §1, §2, §7

[25] = test system: Enterobacter cloacae; assay: Broth microdilution MIC assay, Enterobacter cloacae; details: type —
Method: as §1, §2, §7

## CCCCCc1cc(O)c(C/C=C(/C)CC=C(C)C)c(O)c1 [Example M194, (Z)-2-(3,6-dimethylhepta-2,5-dien-1-yl)-5-pentylbenzene-1,3-diol]
[1]; MRSA, type MRSA, read-out: MIC
  MIC: 1 µg/mL (≈ 3.31 µM)
[1]; MSSA, type MSSA, QC, read-out: MIC
  MIC: 2 µg/mL (≈ 6.61 µM)
[1]; MSSA, type MSSA, read-out: MIC
  MIC: 1 µg/mL (≈ 3.31 µM)
[1]; VISA, type VISA
  MIC: 2 µg/mL (≈ 6.61 µM)
[2]
  MIC: > 64 µg/mL
[3]
  in vitro activity (in words): had activity
[4]
  in vitro activity (in words): not active
[4]; type MDR
  MIC: >64 µg/mL
[4]; type —, read-out: MIC
  MIC: > 64 µg/mL
[5]
  MIC: > 64 µg/mL
[6]
  in vitro activity (in words): to a lesser degree
[7]; type ESBL
  MIC: >64 µg/mL
[7]; type NDM-1
  MIC: >64 µg/mL
[7]; type QC, read-out: MIC
  MIC: > 64 µg/mL
[8]; type QC, read-out: MIC
  MIC: > 64 µg/mL
[8]; type —
  MIC: >64 µg/mL
[9]; type ERYR
  MIC: 16 µg/mL (≈ 52.9 µM)
[9]; type —, read-out: MIC
  MIC: 16 µg/mL (≈ 52.9 µM)
[10]; type MLS
  MIC: 16 µg/mL (≈ 52.9 µM)
[10]; type —, read-out: MIC
  MIC: 16 µg/mL (≈ 52.9 µM)
[11]
  in vitro activity (in words): not active
[12]
  MIC: 16 µg/mL (≈ 52.9 µM)
[13]; type MRSE
  MIC: 1 µg/mL (≈ 3.31 µM)
[13]; type MSSE
  MIC: 1 µg/mL (≈ 3.31 µM)
[14]; ATCC49247, type QC (ATCC 49247 isolate)
  MIC: 4 µg/mL (≈ 13.2 µM)
[14]; H. influenzae
  in vitro activity (in words): had activity
[14]; type BL+ (beta-lactamase positive isolate MMX 7988)
  MIC: 32 µg/mL (≈ 106 µM)
[15]
  MIC: 32 µg/mL (≈ 106 µM)
[16]
  MIC: > 64 µg/mL
[17]; type vanA
  MIC: 1 µg/mL (≈ 3.31 µM)
[17]; type —, read-out: MIC
  MIC: 1 µg/mL (≈ 3.31 µM)
[18]; P. aeruginosa
  in vitro activity (in words): not active
[18]; type MDR, VIM
  MIC: >64 µg/mL
[18]; type QC, read-out: MIC
  MIC: > 64 µg/mL
[19]; N. gonorrhoeae
  in vitro activity (in words): had activity
[19]; Neisseria gonorrhoeae, type QC
  MIC: 1 µg/mL (≈ 3.31 µM)
[20]
  MIC: 32 µg/mL (≈ 106 µM)
[21]; type VSE, QC, read-out: MIC
  MIC: 2 µg/mL (≈ 6.61 µM)
[21]; type VSE, read-out: MIC
  MIC: 1 µg/mL (≈ 3.31 µM)
[21]; type vanA
  MIC: 1 µg/mL (≈ 3.31 µM)
[21]; type vanB
  MIC: 1 µg/mL (≈ 3.31 µM)
[22]
  in vitro activity (in words): had activity
[22]; type BL+
  MIC: 2 µg/mL (≈ 6.61 µM)
[23]
  MIC: 2 µg/mL (≈ 6.61 µM)
[24]
  MIC: 32 µg/mL (≈ 106 µM)
[25]
  MIC: > 64 µg/mL
